Measurements from patent US20120309728A1, “NEW STEROID INHIBITORS OF PGP FOR USE FOR INHIBITING MULTIDRUG RESISTANCE” (priority 2009, published 2012).

Assays:
K562/R7 cells [1] = assay: Cytotoxicity assay using MTT reagent, with doxorubicin plus steroid modulator; format: cell-based, human; details: doxorubicin 10^−6M + steroid modulator 10^−6M, 72 h
Protocol: Doxorubicin at 10^−6 M was then added to each well. After incubation for 72 h, 20 μL of MTT reagent (5 mg/mL in PBS buffer) were added to each well and the plate was further incubated for 4 h at 37° C., allowing viable cells to change the yellow MTT into dark-blue formazan crystals. Supernatants were carefully discarded and 100 μL of isopropanol containing 10% HCL 1M were added to dissolve the formazan crystals. Absorbance in each well was determined at 570 nm using a microplate reader (MultisKan EX, Thermo Electron). […] At least three different experiments were performed. Results were expressed as the percentage of surviving cells in each well compared to untreated cells.

H295R cells [2] = assay: Cytotoxicity assay using [^3H]thymidine incorporation in surviving cells, with doxorubicin plus steroid modulator; format: cell-based, human; details: comment on Table 2, both value columns
Protocol: Doxorubicine (DOXO) at 10^−6 M was added shortly thereafter to each well. […] Finally the precipitate was solubilized by addition of 300 μL of a solution of sodium deoxycholate (4% in NaOH 0.5 M) (O. Joly-Pharaboz et al., J Steroid Biochem. Mol. Biol. 73 (2000) 237-249). Radioactivity was measured (Tri-Carb 1900 CA, Packard) after addition of liquid scintillation cocktail (Perkin Elmer, Courtaboeuf, France). […] At least three different experiments were performed for each cell type.

R7 cells xenograft = assay: In vivo efficiency in SCID mice xenografted with R7 cells
From the text: (§1) FIGS. 7 and 8 represent the tumour volume of mice treated with vehicle ([…]), doxorubicin (∘), compound (33) alone (▾), and compound (33) with doxorubicin (Δ). The tumor volume is indicated as a function of days. FIG. 7 concerns mice xenografted with H295R cells and FIG. 8 concerns mice xenografted with R7 cells (the arrow indicates the beginning of treatment of mice).
(§2) For each xenograft, four groups of five mice developing a tumour in both flanks were employed. Group 1 received vehicle alone, group 2 received DOXO (1.5 mg/kg/mouse+vehicle), group 3 received (33) derivative (10 mg/kg/mouse solubilised with vehicle) and group 4 received DOXO+derivative.

resistant R7 cells = assay: Reversion of chemoresistance to doxorubicin by steroid modulators (modulation of IC50 for doxorubicin); format: cell-based, human; details: in vitro, cyclosporine A in the same conditions
Protocol: FIGS. 3 and 4 represent the effects of compounds of the invention (steroid modulators) on chemosensitization of resistant R7 cells to doxorubicin (DOXO), evaluated by [^3H]thymidine incorporation. Resistant R7 cells were incubated for 24 hours with increasing concentrations of doxorubicinin the absence (∘) or in the presence of said steroid modulators. As a control, the sensitive K562 cells were incubated with the same concentrations of doxorubicin ([…]).
Sensitive parental K562 cells were also treated with the same increasing concentrations of DOXO (from 10^−8 to 10^−4 M) in the absence of steroids, as a control.

H295R cells xenograft = assay: In vivo efficiency in SCID mice xenografted with H295R cells
From the text: as §1, §2

R7 cells = assay: Intracellular accumulation of daunorubicin measured by flow cytometry; format: cell-based, human; details: daunorubicin 10 μM, compound 10 μM, 1 h at 37° C.
Protocol: The accumulation of daunorubicin in the presence of steroid modulators according to the invention, i.e. compounds having formula (I), was measured by flow cytometry using a reported procedure (G. Comte et al, J. Med. Chem., 44: 763-768, 2001). K562 or R7 cells ([…]) were incubated for 1 h at 37° C. with 1 mL RPMI 1640 medium containing daunorubicin at 10 μM, in the presence or absence of compounds of the invention (10 μM). The cells were then washed twice with ice-cold PBS and kept on ice until analysis by flow cytometry on a FACS-II (Becton-Dickinson Corp., Mountain View, Calif.). Assays were performed in duplicate, in at least three separate experiments.

H295R cells [3] = assay: cells
Protocol: (§3) After treatment, the number of surviving cells was evaluated by the incorporation of [^3H]thymidine as described above.

K562/R7 cells [4] = assay: Determination of IC50 for cytotoxics ([^3H]thymidine incorporation)
Protocol: as §3

[5] = DOXO 1.5 mg/kg/mouse + derivative 10 mg/kg/mouse (group 4) versus groups 1, 2 and 3
[6] = DOXO + derivative (group 4), 40 days of treatment

SMILES: CC(=O)C1CCC2C3C([C@H](OC4CCCCO4)C[C@]12C)[C@@]1(C)CCC(=O)C[C@H]1C[C@H]3OC(=O)c1ccccc1 (stereo partly drawn) [Compound 33, 7α-Benzoyloxy-11α-O-[2′(R)]tetrahydropyranyl-oxy(5β)pregnane-3,20-dione]
- Surviving cells R7 cells (% untreated cells) (K562/R7 cells [1]): 1.5 ± 0.9 % untreated cells
- activity to increase the cytotoxicity of doxorubicin (in words) (H295R cells [2]): activity similar to cyclosporine A
- development of tumour (R7 cells xenograft; [5]): delay in the development of tumour
- survival time (R7 cells xenograft; DOXO + derivative (group 4)): longer survival time
- tumour volume (R7 cells xenograft; [6]): remains low and stable
- potency relative to cyclosporine A in decreasing IC50 for doxorubicin (resistant R7 cells): 10 fold
- development of tumour (H295R cells xenograft; [5]): delay in the development of tumour
- survival time (H295R cells xenograft; DOXO + derivative (group 4)): longer survival time
- tumour volume (H295R cells xenograft; [6]): remains low and stable

SMILES: CC(=O)[C@@]1(OC2CCCCO2)CCC2C3CC[C@@H]4CC(=O)CC[C@]4(C)C3[C@H](OC3CCCCO3)C[C@@]21C (stereo partly drawn) [Compound 51, 11α,17α-Bis-O-[2′(S),2′(R)]tetrahydropyranyloxy(5β)pregnane-3,20-dione]
- potency relative to cyclosporine A in decreasing IC50 for doxorubicin (resistant R7 cells): 10 fold
- Daunorubicin accumulation (R7 cells): 68.02 ± 15.6 % of the accumulation measured in the presence of cyclosporine A

SMILES: COc1cccc2c1C(=O)c1c(O)c3c(c(O)c1C2=O)C[C@@](O)(C(=O)CO)C[C@@H]3O[C@H]1C[C@H](N)[C@H](O)[C@H](C)O1 [doxorubicin]
- IC50 (H295R cells [3]; Homo sapiens, NCI-H295R, 24 h, read-out: IC50 of cytotoxic drug (concentration inhibiting cell growth by 50%)): 20.6 µM
- IC50 (K562/R7 cells [4]; Homo sapiens, K562/R7, 24 h, read-out: IC50 of cytotoxic drug (concentration inhibiting cell growth by 50%)): 63.6 µM

SMILES: O=C1c2c(O)ccc(O)c2C(=O)c2c(NCCNCCO)ccc(NCCNCCO)c21 [mitoxantrone]
- resistance of the cells to the cytotoxic drug (in words) (H295R cells [3]): resistant
- resistance of the cells to the cytotoxic drug (in words) (K562/R7 cells [4]): resistant

SMILES: CC[C@]1(O)C[C@@H]2CN(CCc3c([nH]c4ccccc34)[C@@](C(=O)OC)(c3cc4c(cc3OC)N(C)[C@H]3[C@@](O)(C(=O)OC)[C@H](OC(C)=O)[C@]5(CC)C=CCN6CC[C@]43[C@@H]65)C2)C1 [vinblastine]
- resistance of the cells to the cytotoxic drug (in words) (K562/R7 cells [4]): resistant

SMILES: CCC1=C[C@@H]2CN(C1)Cc1c([nH]c3ccccc13)[C@@](C(=O)OC)(c1cc3c(cc1OC)N(C)[C@H]1[C@@](O)(C(=O)OC)[C@H](OC(C)=O)[C@]4(CC)C=CCN5CC[C@]31[C@@H]54)C2 [vinorelbine]
- resistance of the cells to the cytotoxic drug (in words) (H295R cells [3]): resistant
